What was measured:
[1] = test system: T1, Nitrile hydratase (Nhase); test: acrylamide formation at […] nm; type: biochemical, Alcaligenes sp. MTCC 10674; details: sodium phosphate buffer 0.125 M, pH 8.0, 15 °C (standard assay)
T1 construct: gene nthA; native, purified from Alcaligenes sp; MTCC 10674 cells (DEAE-Sepharose); heterodimer of 24 and 21 kDa, 47 kDa by native PAGE

Amidase = test system: T2, Amidase; test: ammonia release assay; type: biochemical, Alcaligenes sp. MTCC 10674; details: sodium phosphate buffer 0.075 M, pH 8.0, 45 °C (standard assay); substrate named, not in the Km sentence
T2 construct: native, purified from Alcaligenes sp; MTCC 10674 cells (DEAE-Sepharose, Sephacryl S-100); dimer of 52 and 49 kDa, 114 kDa by native PAGE

C=CC#N [acrylonitrile]
Km [1]: 40 mM

CCC(N)=O [propionamide]
Km (Amidase): 45.5 mM

From article PMC4145624, “Simultaneous purification of nitrile hydratase and amidase of Alcaligenes sp. MTCC 10674” (3 Biotech, 2013)
